Reference: PMC10098121, “Amphipathic barbiturates as marine product mimics with cytolytic and immunogenic effects on head and neck squamous cell carcinoma cell lines” (Frontiers in Pharmacology, 2023)

What was measured:
Assay type in all cases: cell-based, human
HSC-3 cells = assay: Scratch wound invasion assay (myogel-collagen); conditions: HSC-3, 10 µM, 24 h; control cells approximately 24 h
Protocol: Two Incucyte image lock 96-well plates (#4379, Sartorius) were coated with 50 µl myogel (0.5 mg/ml) per well. The next day, the media remaining in the wells was removed before HSC-3 cells were seeded at a density of 25,000 cells/well in 100 µl. The cells were left to adhere, and the following day, a scratch was made in the middle of each well using the Incucyte 96-pin WoundMaker tool (Sartorius). The wells were then washed once with media. For the migration assay, the media in each well was then replaced with 100 µl of media containing 0.1, 1 or 10 µM of MPM-2:0 or MPM-4:2. For the invasion assay, the media was replaced by 50 µl of a gel consisting of serum-free media, myogel (2.4 mg/ml), type I rat tail collagen (0.8 mg/ml, Corning, NY, USA) and 0.1, 1 or 10 µM of MPM-2:0 or MPM-4:2. The plate was incubated at 37°C for 1 h to let the gel solidify. Next, 100 µl of media, also containing 0.1, 1 or 10 µM of MPM-2:0 or MPM-4:2 was added on top of the gel. Both the migration and invasion plates were placed in the Incucyte S3 (Sartorius) and imaged at ×10 magnification every 2 hours for 24 h in total. The Incucyte software was used to analyze the relative wound density.

UT-SCC-24A cells = assay: Flow cytometric detection of apoptosis (Annexin V/PI); conditions: 24 h
Protocol: HSC-3 and UT-SCC-24A cells were seeded, 300,000 cells/well, in 6-well plates and left to adhere overnight. The media was then removed and replaced by 2 ml complete DMEM/F-12 containing 5, 7.5, 10 or 20 µM of MPM-2:0, MPM-6:0, MPM-3:2 or MPM-4:2, or 50 µM cisplatin. Some cells were left untreated. The cells were then incubated for 24 h. Next, the cell supernatants were collected before the cells were trypsinized and spun down with the supernatants. For the staining, an apoptosis detection kit was used (#88-8005-74, Thermo Fisher Scientific). The cells were washed once in PBS and once in 1x binding buffer before being incubated with FITC labeled Annexin V diluted 1:25 in 1 × binding buffer for 15 min. Next the cells were washed in 1 × binding buffer before being incubated with PI diluted 1:100 in 1 × binding buffer for at least 5 min before analysis was performed on the LSR Fortessa (BD Biosciences, CA, United States). Analyses were performed in FlowJo™ v.10 (https://www.flowjo.com/).

UT-SCC-42A = assay: High throughput drug screening (CellTiter-Glo, DSS); conditions: for drug sensitivity score (DSS): 72 h, 10-100,000 nM, myogel, non-irradiated; for delta DSS (ΔDSS): DSS irradiated (2 Gy) minus DSS non-irradiated, >5 synergy, <–5 antagonism
Protocol: (§1) The MPMs were screened against a panel of […] different cell lines (HSC-3, UT-SCC-8, UT-SCC-24A, UT-SCC-24B, UT-SCC-42A, UT-SCC-42B and NOF) at the High Throughput Biomedicine Unit (HTB) at the Institute for Molecular Medicine Finland (FIMM). On day 1, black-walled 384-well plates were coated with 5 µl diluted myogel (0.5 mg/ml) per well using an automated reagent dispenser (MultiFlo FX, BioTek, Winooski, VT, United States). On day 2, 500 cells per well were seeded in 20 µl of complete media using the MultiFlo FX (BioTek), and the cells were left to adhere overnight. On day 3, the MPMs, cisplatin, DMSO and Benzethonium chloride were added to the cells using an automatic liquid handler (Echo 550, Labcyte Inc., San Jose, CA, United States). Cisplatin and the MPMs were added to yield five different concentrations in a ten-fold dilution series ranging from 10 to 100,000 nM. Each concentration was tested in triplicate wells. DMSO (0.1%) and benzethonium chloride (100 µM) served as negative and positive control, respectively. Three hours later, some of the plates were irradiated with 2 Gy in a gamma irradiator (OB29/4, STS, Braunschweig, Germany). All plates were taken to the irradiation room to ensure similar handling of the plates. 72 h later, the plates were cooled to room temperature before 25 µl of CellTiter-Glo 2.0 reagent (Promega, Madison, WI, USA) was added to each well using the MultiFlo FX (BioTek). Next, the plates were centrifuged for 5 min at 1,000 rpm before the luminescence signal was measured with the PHERAstar FS HT reader (BMG LABTECH GmbH, Ortenberg, Germany). The raw data was analyzed with the Breeze software (https://breeze.fmm.fi), which normalized the luminescence signal from treated cells against the signal from negative and positive control cells to calculate the percentage of inhibition and generate dose-response curves, which were then used to calculate drug sensitivity scores (DSS). The DSS is a parameter which combines the IC50, the slope of the dose-response curve, and the minimum and maximum responses into a single metric, as previously described ([Yadav et al., 2014]). Quality control was performed by calculation of the Z′-factor, which was >0.7 for all cell lines, indicating high quality of the assay ([Zhang et al., 1999]).

UT-SCC-24A = assay: as above; conditions: for drug sensitivity score (DSS): 72 h, 10-100,000 nM, myogel, non-irradiated; for delta DSS (ΔDSS): DSS irradiated (2 Gy) minus DSS non-irradiated, >5 synergy, <–5 antagonism
Protocol: as §1

[1] = tested on: NOF (normal oral fibroblasts); assay: as above; conditions: for drug sensitivity score (DSS): 72 h, 10-100,000 nM, myogel, non-irradiated; for delta DSS (ΔDSS): DSS irradiated (2 Gy) minus DSS non-irradiated, >5 synergy, <–5 antagonism
Protocol: as §1

UT-SCC-106A = assay: as above; conditions: for drug sensitivity score (DSS): 72 h, 10-100,000 nM, myogel, non-irradiated; for delta DSS (ΔDSS): DSS irradiated (2 Gy) minus DSS non-irradiated, >5 synergy, <–5 antagonism
Protocol: as §1

UT-SCC-24B = assay: as above; conditions: for drug sensitivity score (DSS): 72 h, 10-100,000 nM, myogel, non-irradiated; for delta DSS (ΔDSS): DSS irradiated (2 Gy) minus DSS non-irradiated, >5 synergy, <–5 antagonism
Protocol: as §1

HSC-3 = assay: as above; conditions: for drug sensitivity score (DSS): HSC-3, 72 h, 10-100,000 nM, myogel, non-irradiated; for delta DSS (ΔDSS): HSC-3, DSS irradiated (2 Gy) minus DSS non-irradiated, >5 synergy, <–5 antagonism
Protocol: as §1

UT-SCC-8 = assay: as above; conditions: for drug sensitivity score (DSS): UT-SCC-8, 72 h, 10-100,000 nM, myogel, non-irradiated; for delta DSS (ΔDSS): UT-SCC-8, DSS irradiated (2 Gy) minus DSS non-irradiated, >5 synergy, <–5 antagonism
Protocol: as §1

UT-SCC-42B = assay: as above; conditions: for drug sensitivity score (DSS): 72 h, 10-100,000 nM, myogel, non-irradiated; for delta DSS (ΔDSS): DSS irradiated (2 Gy) minus DSS non-irradiated, >5 synergy, <–5 antagonism
Protocol: as §1

| SMILES | wound closure in invasion assay (in words) (HSC-3 cells) | Annexin V−/PI+ population (in words) (UT-SCC-24A cells) | drug sensitivity score (DSS) (UT-SCC-42A) | delta DSS (ΔDSS) (UT-SCC-42A) | drug sensitivity score (DSS) (UT-SCC-24A) | delta DSS (ΔDSS) (UT-SCC-24A) | drug sensitivity score (DSS) [1] | delta DSS (ΔDSS) [1] | drug sensitivity score (DSS) (UT-SCC-106A) | delta DSS (ΔDSS) (UT-SCC-106A) | drug sensitivity score (DSS) (UT-SCC-24B) | delta DSS (ΔDSS) (UT-SCC-24B) | drug sensitivity score (DSS) (HSC-3) | delta DSS (ΔDSS) (HSC-3) | drug sensitivity score (DSS) (UT-SCC-8) | delta DSS (ΔDSS) (UT-SCC-8) | drug sensitivity score (DSS) (UT-SCC-42B) | delta DSS (ΔDSS) (UT-SCC-42B) | apoptotic (Annexin V+/PI−) population (in words) (UT-SCC-24A cells; cisplatin 50 µM, MPMs 5-20 µM) |
| --- | --- | --- | --- | --- | --- | --- | --- | --- | --- | --- | --- | --- | --- | --- | --- | --- | --- | --- | --- |
| CN(C)CCCCN1C(=O)N(CCCCN(C)C)C(=O)C(CCCc2ccccc2)(CCCc2ccccc2)C1=O [MPM-4:2] | never managed to close the wound | induced a large population of Annexin V−/PI + UT-SCC-24A cells | 17 | 0,4 | 18,4 | -0,6 | 22,6 | 1,2 | 19,5 | -0,2 | 18,9 | -0,5 | 18,2 | 0,3 | 18,1 | 0,5 | 16,6 | -0,4 |  |
| N.N.[Cl][Pt][Cl] [Cisplatin, cisplatin, reference compound] |  |  | 7,1 | -0,1 | 8,9 | -0,9 | 9,6 | -1,9 | 9 | 0,3 | 11,6 | 0,7 | 15,6 | -0,8 | 16,8 | -0,8 | 7,7 | -0,6 | small, but clearly apoptotic (Annexin V+/PI−) population |
| CN(C)CCCN1C(=O)N(CCCN(C)C)C(=O)C(CCCc2ccccc2)(CCCc2ccccc2)C1=O [MPM-3:2] |  | induced a large population of Annexin V−/PI + UT-SCC-24A cells | 16 | 0,6 | 17,9 | -0,2 | 19,3 | -1,6 | 18,6 | -0,2 | 18,4 | 0,1 | 17,9 | -0,2 | 17,8 | 0,1 | 15,7 | 0,3 |  |
| NCCCCCCN1C(=O)N(CCCCCCN)C(=O)C(CCCc2ccccc2)(CCCc2ccccc2)C1=O [MPM-6:0] |  |  | 17,9 | 0,3 | 18,6 | -0,2 | 18 | -0,3 | 17,9 | -0,4 | 18,3 | 0,1 | 17,8 | 0,7 | 19,5 | -0,8 | 18,4 | -0,5 |  |
| NCCN1C(=O)N(CCN)C(=O)C(CCCc2ccccc2)(CCCc2ccccc2)C1=O [MPM-2:0] | induced cell death so quickly that it was not possible to study the effect on migration or invasion |  | 19 | -0,7 | 18,7 | -0,7 | 18,3 | -0,7 | 18 | -0,5 | 18,3 | -0,1 | 19 | -0,7 | 19,2 | 0,6 | 18,7 | -0,1 |  |
